From patent US20110144156A1, “A3 ADENOSINE RECEPTOR ALLOSTERIC MODULATORS” (UNIVERSITEIT LEIDEN, priority 2008, published 2011)

Tests used:
human A3ARs [1] = target: T1, human A3ARs (Homo sapiens, UniProt P0DMS8); test: Dissociation kinetics of [125I]I-AB-MECA from human A3ARs (allosteric effect); conditions: 10 μM test compound; binding after 1.5 or 2 hours of dissociation, control without modulator set at 100%; brackets = result of each of two assays; read-out: hA3ARAg Dissociation at 10 μM
T1 construct: expressed in transfected cells; host or cells: CHO (Chinese hamster ovary) cells; membrane preparation
T1 sequence (P0DMS8 1-318): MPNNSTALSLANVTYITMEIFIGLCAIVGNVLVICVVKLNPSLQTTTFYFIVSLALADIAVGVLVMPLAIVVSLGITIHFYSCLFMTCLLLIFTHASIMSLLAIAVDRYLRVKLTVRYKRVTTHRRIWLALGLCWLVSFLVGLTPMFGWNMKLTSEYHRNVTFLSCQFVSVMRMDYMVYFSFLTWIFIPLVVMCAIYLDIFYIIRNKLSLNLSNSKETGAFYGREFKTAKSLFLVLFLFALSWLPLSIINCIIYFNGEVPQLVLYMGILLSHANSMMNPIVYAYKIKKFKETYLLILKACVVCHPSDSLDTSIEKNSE
Procedure: (§1) CHO (Chinese hamster ovary) cells expressing the recombinant human A3 receptors were cultured in DMEM and F12 (1:1) supplemented with 10% fetal bovine serum, 100 units/ml penicillin, 100 μg/ml streptomycin and 2 μmol/ml glutamine. Cells were harvested by trypsinization. After homogenization and suspension, cells were centrifuged at 500 g for 10 min, and the pellet was re-suspended in 50 mM Tris.HCl buffer (pH 7.4) containing 10 mM MgCl2. The suspension was homogenized with an electric homogenizer for 10 sec, and was then re-centrifuged at 20,000 g for […] at 4° C. The resultant pellets were resuspended in buffer in the presence of 3 Units/mL adenosine deaminase, and the suspension was stored at −80° C. until the binding experiments. The protein concentration was measured using the Bradford assay.
The dissociation of [^125I]I-AB-MECA was measured as follows. Membranes (20 μg) were pre-incubated at 25° C. with 0.5 nM [^125I]I-AB-MECA, in a total volume of 100 μl of Tris-HCl buffer (50 mM, pH 8.0) containing 10 mM MgCl2, and 1 mM EDTA for 60 min. The dissociation was then initiated by the addition of 3 μM Cl-IB-MECA with or without allosteric modulators. The time course of dissociation of total binding was measured by rapid filtration at appropriate time intervals. Nonspecific binding was measured after 60-min incubation in the presence of 3 μM Cl-IB-MECA. Further assay was as described above.

human A3ARs [2] = target: T1, human A3ARs; test: Competitive binding assay to the human A3 AR with [125I]I-AB-MECA; conditions: 1 h, 10 μM test compound; [125I]I-AB-MECA radioligand; CHO cell membranes expressing human A3AR; brackets = individual assays; read-out: % displacement at 10 μM (hA3AR)
Procedure: as §1
Each tube in the competitive binding assay contained 100 μl membrane suspension (20 μg protein), 50 μl [^125I]I-AB-MECA (0.5 nM), and 50 μl of increasing concentrations of the test modulators in Tris.HCl buffer (50 mM, pH 8.0) containing 10 mM MgCl2, 1 mM EDTA. Nonspecific binding was determined using 10 μM of 5′-N-ethylcarboxamidoadenosine in the buffer. The mixtures were incubated at 25° C. for 60 min. Binding reactions were terminated by filtration through Whatman GF/B filters under reduced pressure using a MT-24 cell harvester (Brandell, Gaithersburgh, Md., USA). Filters were washed three times with 9 mL ice-cold buffer. Radioactivity was determined in a Beckman 5500B γ-counter.
Binding parameters were calculated using Prism 5.0 software (GraphPAD, San Diego, Calif., USA). IC50 values obtained from competition curves were converted to Ki values using the Cheng-Prusoff equation. Data were expressed as mean±standard error.

| activity at 10 µM (human A3ARs [1]) | inhibition at 10 µM (human A3ARs [2]) | SMILES |
| --- | --- | --- |
| 220% | 64% | Cc1ccc(Nc2cc(NC(=O)C3CCCCC3)c3ccccc3n2)cc1 [Compound 27, N-{2-[(4-methylphenyl)amino]quinolin-4-yl}cyclohexanecarboxamide] |
| 119% | 66% | O=C(Nc1cc(Nc2ccccc2)nc2ccccc12)C1CCC1 [Compound 33, N-(2-anilinoquinolin-4-yl)cyclobutanecarboxamide] |
| 114% | 14% | O=C(Nc1cc(NC2CCCC2)nc2ccccc12)C1CCCC1 [Compound 23, N-[2-(cyclopentylamino)quinolin-4-yl]cyclopentanecarboxamide] |
| 149% | 51% | O=C(Nc1cc(Nc2ccc(Cl)c(Cl)c2)nc2ccccc12)C1CCC1 [Compound 34, N-{2-[(3,4-dichlorophenyl)amino]quinolin-4-yl}cyclobutanecarboxamide] |
| 96% | 13% | O=C(Nc1cc(Nc2ccc(Cl)c(Cl)c2)nc2ccccc12)c1ccco1 [Compound 32, N-{2-[(3,4-dichlorophenyl)amino]quinolin-4-yl}-2-furamide] |
| 112% | 37% | O=C(Nc1cc(Nc2ccc(Cl)c(Cl)c2)nc2ccccc12)c1ccccc1 [Compound 30, N-{2-[(3,4-dichloro-phenyl)amino]quinolin-4-yl}benzamide] |
| 134% | 35% | COc1ccc(Nc2cc(NC(=O)C3CCCC3)c3ccccc3n2)cc1 [Compound 21, N-{2-[(4-methoxyphenyl)amino]quinolin-4-yl}cyclopentanecarboxamide] |
| 107% | 28% | O=C(Nc1cc(NCc2ccccc2)nc2ccccc12)C1CCCC1 [Compound 18, N-[2-(benzylamino)quinolin-4-yl]cyclopentanecarboxamide] |
| 145% | 61% | O=C(Nc1cc(Nc2ccccc2)nc2ccccc12)C1CCCC1 [Compound 16, N-(2-anilinoquinolin-4-yl)cyclopentanecarboxamide] |
| ≤ 249% |  | O=C(Nc1cc(Nc2ccc(Cl)c(Cl)c2)nc2ccccc12)C1CCCCC1 [Compound 26, N-{2-[(3,4-dichlorophenyl)amino]quinolin-4-yl}cyclohexanecarboxamide] |
| 147% | 62% | O=C(Nc1cc(Nc2ccc3c(c2)CCC3)nc2ccccc12)C1CCCC1 [Compound 20, N-[2-(2,3-dihydro-1H-inden-5-ylamino)quinolin-4-yl]cyclopentanecarboxamide] |
| 102% | 90% | O=C(Nc1cc(Nc2ccc3cn[nH]c3c2)nc2ccccc12)C1CCCC1 [Compound 24, N-[2-(1H-indazol-6-ylamino)quinolin-4-yl]cyclopentanecarboxamide] |
|  | < 50% | O=C(Nc1cc(Nc2ccc3c(c2)CCC3)nc2ccccc12)C1CCCCC1 [Compound 28, N-[2-(2,3-dihydro-1H-inden-5-ylamino)quinolin-4-yl]cyclohexanecarboxamide] |
| 165% | 63% | Cc1ccc(Nc2cc(NC(=O)C3CCCC3)c3ccccc3n2)cc1 [Compound 19, N-{2-[(4-methylphenyl)amino]quinolin-4-yl}cyclopentanecarboxamide] |
| 169% | 50% | O=C(Nc1cc(Nc2ccc(Cl)c(Cl)c2)nc2ccccc12)C1CCCC1 [Compound 17, N-{2-[(3,4-dichlorophenyl)amino]quinolin-4-yl}cyclopentanecarboxamide] |
| 100% | 76% | O=C(Nc1cc(Nc2ccccc2)nc2ccccc12)c1ccccc1 [Compound 29, N-(2-anilinoquinolin-4-yl)benzamide] |
| 100% | 60% | O=C(Nc1cc(Nc2ccccc2)nc2ccccc12)c1ccco1 [Compound 31, N-(2-anilinoquinolin-4-yl)-2-furamide] |
